From PubChem BioAssay (NCI)
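In this assay, cells in 96-well plates receive the compound at five concentrations for 48 hours. Endpoints are linearly interpolated between the surrounding concentrations. GI50 marks 50% less growth. At the TGI there is no net growth.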

Columns and labels:
Assay in all cases: NCI anticancer screen, dose series, 48 h
786-0 renal = system: 786-0 renal
A498 renal = system: A498 renal
A549 NSCLC = system: A549 NSCLC
ACHN renal = system: ACHN renal
BT-549 breast = system: BT-549 breast
CAKI-1 renal = system: CAKI-1 renal
CCRF-CEM leukemia = system: CCRF-CEM leukemia
COLO 205 colon = system: COLO 205 colon
DU-145 prostate = system: DU-145 prostate
HCC-2998 colon = system: HCC-2998 colon
HCT-116 colon = system: HCT-116 colon
HCT-15 colon = system: HCT-15 colon
HL-60(TB) leukemia = system: HL-60(TB) leukemia
HOP-62 NSCLC = system: HOP-62 NSCLC
HOP-92 NSCLC = system: HOP-92 NSCLC
HS 578T breast = system: HS 578T breast
HT29 colon = system: HT29 colon
IGROV1 ovarian = system: IGROV1 ovarian
K-562 leukemia = system: K-562 leukemia
KM12 colon = system: KM12 colon
LOX IMVI melanoma = system: LOX IMVI melanoma
M14 melanoma = system: M14 melanoma
MALME-3M melanoma = system: MALME-3M melanoma
MCF7 breast = system: MCF7 breast
MDA-MB-231 breast = system: MDA-MB-231 breast
NCI-H226 lung = system: NCI-H226 lung
NCI-H23 lung = system: NCI-H23 lung
NCI-H460 lung = system: NCI-H460 lung
NCI-H522 lung = system: NCI-H522 lung
NCI/ADR-RES ovarian = system: NCI/ADR-RES ovarian
OVCAR-3 ovarian = system: OVCAR-3 ovarian
OVCAR-4 ovarian = system: OVCAR-4 ovarian
OVCAR-5 ovarian = system: OVCAR-5 ovarian
OVCAR-8 ovarian = system: OVCAR-8 ovarian
PC-3 prostate = system: PC-3 prostate
RPMI-8226 leukemia = system: RPMI-8226 leukemia
RXF 393 renal = system: RXF 393 renal
SF-268 CNS = system: SF-268 CNS
SF-295 CNS = system: SF-295 CNS
SF-539 CNS = system: SF-539 CNS
SK-MEL-2 melanoma = system: SK-MEL-2 melanoma
SK-MEL-28 melanoma = system: SK-MEL-28 melanoma
SK-MEL-5 melanoma = system: SK-MEL-5 melanoma
SK-OV-3 ovarian = system: SK-OV-3 ovarian
SN12C renal = system: SN12C renal
SNB-19 CNS = system: SNB-19 CNS
SNB-75 CNS = system: SNB-75 CNS
SR leukemia = system: SR leukemia
SW-620 colon = system: SW-620 colon
T-47D breast = system: T-47D breast
U251 CNS = system: U251 CNS
UACC-257 melanoma = system: UACC-257 melanoma
UACC-62 melanoma = system: UACC-62 melanoma
UO-31 renal = system: UO-31 renal
MOLT-4 leukemia = system: MOLT-4 leukemia
TK-10 renal = system: TK-10 renal

`CCSc1nnc(-c2ccc3ccccc3c2O)n1-c1ccc(Cl)cc1` was tested, and the GI50 (786-0 renal) was 60.3 µM, the TGI (786-0 renal) was > 100 µM and the GI50 (A498 renal) was > 100 µM. The TGI (A498 renal) was > 100 µM, the GI50 (A549 NSCLC) was 4.51 µM and the TGI (A549 NSCLC) was > 100 µM. For the same molecule, the GI50 (ACHN renal) was 4.99 µM, the TGI (ACHN renal) was > 100 µM and the GI50 (BT-549 breast) was > 100 µM. The TGI (BT-549 breast) was > 100 µM, the GI50 (CAKI-1 renal) was 6.85 µM and the TGI (CAKI-1 renal) was > 100000 nM. For the same molecule, the GI50 (CCRF-CEM leukemia) was 3.58 µM, the TGI (CCRF-CEM leukemia) was > 100 µM and the GI50 (COLO 205 colon) was 47.4 µM. The TGI (COLO 205 colon) was > 100 µM, the GI50 (DU-145 prostate) was 13.1 µM and the TGI (DU-145 prostate) was > 100 µM. The GI50 (HCC-2998 colon) was > 100000 nM, the TGI (HCC-2998 colon) was > 100000 nM and the GI50 (HCT-116 colon) was 4000 nM. The TGI (HCT-116 colon) was > 100000 nM, the GI50 (HCT-15 colon) was 3130 nM and the TGI (HCT-15 colon) was > 100000 nM. For the same molecule, the GI50 (HL-60(TB) leukemia) was 7.16 µM, the TGI (HL-60(TB) leukemia) was > 100 µM and the GI50 (HOP-62 NSCLC) was 22.1 µM. For the same molecule, the TGI (HOP-62 NSCLC) was > 100000 nM, the GI50 (HOP-92 NSCLC) was 9.23 µM and the TGI (HOP-92 NSCLC) was > 100000 nM. For the same molecule, the GI50 (HS 578T breast) was 85.4 µM, the TGI (HS 578T breast) was > 100 µM and the GI50 (HT29 colon) was 16 µM. The TGI (HT29 colon) was > 100 µM, the GI50 (IGROV1 ovarian) was 4.42 µM and the TGI (IGROV1 ovarian) was > 100 µM. For the same molecule, the GI50 (K-562 leukemia) was 4.04 µM, the TGI (K-562 leukemia) was > 100 µM and the GI50 (KM12 colon) was > 100000 nM. The TGI (KM12 colon) was > 100000 nM, the GI50 (LOX IMVI melanoma) was 5.52 µM and the TGI (LOX IMVI melanoma) was > 100000 nM. The GI50 (M14 melanoma) was 8.11 µM, the TGI (M14 melanoma) was > 100 µM and the GI50 (MALME-3M melanoma) was > 100 µM. The TGI (MALME-3M melanoma) was > 100 µM, the GI50 (MCF7 breast) was 6.66 µM and the TGI (MCF7 breast) was > 100 µM. The GI50 (MDA-MB-231 breast) was > 100 µM, the TGI (MDA-MB-231 breast) was > 100 µM and the GI50 (NCI-H226 lung) was 7.46 µM. The TGI (NCI-H226 lung) was > 100 µM, the GI50 (NCI-H23 lung) was > 100000 nM and the TGI (NCI-H23 lung) was > 100000 nM. For the same molecule, the GI50 (NCI-H460 lung) was 3.27 µM, the TGI (NCI-H460 lung) was > 100 µM and the GI50 (NCI-H522 lung) was 5.15 µM. For the same molecule, the TGI (NCI-H522 lung) was > 100 µM, the GI50 (NCI/ADR-RES ovarian) was 4450 nM and the TGI (NCI/ADR-RES ovarian) was > 100000 nM. The GI50 (OVCAR-3 ovarian) was 29.4 µM, the TGI (OVCAR-3 ovarian) was > 100 µM and the GI50 (OVCAR-4 ovarian) was 5.71 µM. For the same molecule, the TGI (OVCAR-4 ovarian) was > 100 µM, the GI50 (OVCAR-5 ovarian) was > 100000 nM and the TGI (OVCAR-5 ovarian) was > 100 µM. For the same molecule, the GI50 (OVCAR-8 ovarian) was 5.5 µM, the TGI (OVCAR-8 ovarian) was > 100 µM and the GI50 (PC-3 prostate) was 50.1 µM. For the same molecule, the TGI (PC-3 prostate) was > 100000 nM, the GI50 (RPMI-8226 leukemia) was 4.83 µM and the TGI (RPMI-8226 leukemia) was > 100 µM. For the same molecule, the GI50 (RXF 393 renal) was 42.3 µM, the TGI (RXF 393 renal) was > 100000 nM and the GI50 (SF-268 CNS) was 26.1 µM. For the same molecule, the TGI (SF-268 CNS) was > 100 µM, the GI50 (SF-295 CNS) was 4240 nM and the TGI (SF-295 CNS) was > 100 µM. The GI50 (SF-539 CNS) was > 100000 nM, the TGI (SF-539 CNS) was > 100 µM and the GI50 (SK-MEL-2 melanoma) was > 100 µM. The TGI (SK-MEL-2 melanoma) was > 100 µM, the GI50 (SK-MEL-28 melanoma) was > 100000 nM and the TGI (SK-MEL-28 melanoma) was > 100000 nM. The GI50 (SK-MEL-5 melanoma) was 6.01 µM, the TGI (SK-MEL-5 melanoma) was > 100000 nM and the GI50 (SK-OV-3 ovarian) was 69.5 µM. For the same molecule, the TGI (SK-OV-3 ovarian) was > 100 µM, the GI50 (SN12C renal) was > 100 µM and the TGI (SN12C renal) was > 100 µM. For the same molecule, the GI50 (SNB-19 CNS) was 5.84 µM, the TGI (SNB-19 CNS) was > 100 µM and the GI50 (SNB-75 CNS) was 65.1 µM. For the same molecule, the TGI (SNB-75 CNS) was > 100 µM, the GI50 (SR leukemia) was 3.86 µM and the TGI (SR leukemia) was > 100 µM. The GI50 (SW-620 colon) was 4280 nM, the TGI (SW-620 colon) was > 100000 nM and the GI50 (T-47D breast) was 8.96 µM. The TGI (T-47D breast) was > 100 µM, the GI50 (U251 CNS) was 4.05 µM and the TGI (U251 CNS) was > 100 µM. For the same molecule, the GI50 (UACC-257 melanoma) was > 100000 nM, the TGI (UACC-257 melanoma) was > 100 µM and the GI50 (UACC-62 melanoma) was 4600 nM. The TGI (UACC-62 melanoma) was > 100000 nM, the GI50 (UO-31 renal) was 3310 nM and the TGI (UO-31 renal) was > 100000 nM.

`Cc1cc2cn3c4cccnc4[nH]c(=O)c3c2cc1C` gave a GI50 (786-0 renal) of 1.87 µM, a TGI (786-0 renal) of 3.33 µM and a GI50 (A498 renal) of 3.8 µM. The TGI (A498 renal) was 18.5 µM, the GI50 (ACHN renal) was 1.73 µM and the TGI (ACHN renal) was 3.1 µM. It also gave a GI50 (BT-549 breast) of 12.2 µM, a TGI (BT-549 breast) of 29.4 µM and a GI50 (CAKI-1 renal) of 1.42 µM. It also gave a TGI (CAKI-1 renal) of 2920 nM, a GI50 (COLO 205 colon) of 1.65 µM and a TGI (COLO 205 colon) of 3.18 µM. For the same molecule, the GI50 (DU-145 prostate) was 1.83 µM, the TGI (DU-145 prostate) was 3.28 µM and the GI50 (HCC-2998 colon) was 1500 nM. It also gave a TGI (HCC-2998 colon) of 2920 nM, a GI50 (HCT-116 colon) of 1450 nM and a TGI (HCT-116 colon) of 2760 nM. For the same molecule, the GI50 (HCT-15 colon) was 1410 nM, the TGI (HCT-15 colon) was 2870 nM and the GI50 (HL-60(TB) leukemia) was 2.08 µM. The TGI (HL-60(TB) leukemia) was 4.16 µM, the GI50 (HOP-62 NSCLC) was 1.5 µM and the TGI (HOP-62 NSCLC) was 2850 nM. For the same molecule, the GI50 (HOP-92 NSCLC) was 1.24 µM, the TGI (HOP-92 NSCLC) was 2650 nM and the GI50 (HS 578T breast) was 1.85 µM. The TGI (HS 578T breast) was 4.38 µM, the GI50 (KM12 colon) was 1150 nM and the TGI (KM12 colon) was 2560 nM. It also gave a GI50 (LOX IMVI melanoma) of 1.47 µM, a TGI (LOX IMVI melanoma) of 2990 nM and a GI50 (MOLT-4 leukemia) of 2250 nM. The TGI (MOLT-4 leukemia) was 4.53 µM, the GI50 (NCI-H226 lung) was 11.2 µM and the TGI (NCI-H226 lung) was 28 µM. It also gave a GI50 (NCI-H23 lung) of 1370 nM, a TGI (NCI-H23 lung) of 2740 nM and a GI50 (NCI/ADR-RES ovarian) of 1390 nM. For the same molecule, the TGI (NCI/ADR-RES ovarian) was 2960 nM, the GI50 (OVCAR-3 ovarian) was 1.77 µM and the TGI (OVCAR-3 ovarian) was 3.22 µM. The GI50 (OVCAR-4 ovarian) was 1.6 µM, the TGI (OVCAR-4 ovarian) was 3.19 µM and the GI50 (OVCAR-5 ovarian) was 1660 nM. It also gave a TGI (OVCAR-5 ovarian) of 3.02 µM, a GI50 (PC-3 prostate) of 1.42 µM and a TGI (PC-3 prostate) of 2890 nM. For the same molecule, the GI50 (RPMI-8226 leukemia) was 1.89 µM, the TGI (RPMI-8226 leukemia) was 4.66 µM and the GI50 (RXF 393 renal) was 1.46 µM. For the same molecule, the TGI (RXF 393 renal) was 2880 nM, the GI50 (SF-295 CNS) was 1510 nM and the TGI (SF-295 CNS) was 3.26 µM. The GI50 (SF-539 CNS) was 1730 nM, the TGI (SF-539 CNS) was 3.12 µM and the GI50 (SK-MEL-28 melanoma) was 1530 nM. The TGI (SK-MEL-28 melanoma) was 2950 nM, the GI50 (SK-MEL-5 melanoma) was 1.13 µM and the TGI (SK-MEL-5 melanoma) was 2340 nM. The GI50 (SK-OV-3 ovarian) was 1.8 µM, the TGI (SK-OV-3 ovarian) was 3.2 µM and the GI50 (SNB-75 CNS) was 1.43 µM. The TGI (SNB-75 CNS) was 3.08 µM, the GI50 (SW-620 colon) was 1090 nM and the TGI (SW-620 colon) was 2470 nM. The GI50 (T-47D breast) was 1.84 µM, the TGI (T-47D breast) was 4 µM and the GI50 (TK-10 renal) was 2270 nM. It also gave a TGI (TK-10 renal) of 3.91 µM, a GI50 (UACC-257 melanoma) of 1670 nM and a TGI (UACC-257 melanoma) of 3.41 µM. It also gave a GI50 (UACC-62 melanoma) of 1380 nM, a TGI (UACC-62 melanoma) of 2780 nM and a GI50 (UO-31 renal) of 1500 nM. It also gave a TGI (UO-31 renal) of 2970 nM.
